Results as given in paper PMC4138991, “Building a Better Dynasore: The Dyngo Compounds Potently Inhibit Dynamin and Endocytosis” (Traffic (Copenhagen, Denmark), 2013).
“Also recorded” adds a separate entry of the source. Where two headings read alike, the source gives them in different places.

Columns and labels:
[1] = target: T1, human serum albumin (Homo sapiens, UniProt P02768); assay: Plasma protein binding on immobilized human serum albumin column; type: in vitro ADME; details: immobilized HSA column
T1 construct: purchased ChromTech Chiral‐HSA, 50 × 3.0 mm, 5 µm
T1 sequence (P02768 25-609): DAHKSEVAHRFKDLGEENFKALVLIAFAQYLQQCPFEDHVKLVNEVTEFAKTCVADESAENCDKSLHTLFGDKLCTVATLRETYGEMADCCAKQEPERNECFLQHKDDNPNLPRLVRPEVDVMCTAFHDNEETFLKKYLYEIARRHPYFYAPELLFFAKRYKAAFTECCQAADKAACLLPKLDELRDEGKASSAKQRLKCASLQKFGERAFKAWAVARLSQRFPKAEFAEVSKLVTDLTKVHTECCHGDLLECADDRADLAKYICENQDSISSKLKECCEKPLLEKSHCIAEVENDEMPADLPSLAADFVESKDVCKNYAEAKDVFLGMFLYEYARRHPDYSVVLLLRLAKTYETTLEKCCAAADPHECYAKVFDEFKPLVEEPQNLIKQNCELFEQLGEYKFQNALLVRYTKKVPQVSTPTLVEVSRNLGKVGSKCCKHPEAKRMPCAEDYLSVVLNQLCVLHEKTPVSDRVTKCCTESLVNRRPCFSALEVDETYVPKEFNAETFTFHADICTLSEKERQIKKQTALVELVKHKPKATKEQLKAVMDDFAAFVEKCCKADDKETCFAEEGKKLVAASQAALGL
From the text: Plasma protein binding was estimated using an immobilized human serum albumin column (ChromTech Chiral‐HSA, 50 × 3.0 mm, 5 µm) with gradient elution based on a previously published method 56.

[2] = test system: HeLa cells; assay: Trypan blue exclusion cell viability and proliferation assay; type: cell-based; details: 20 h exposure, with or without serum
Method: Cell viability and membrane integrity was assessed by the Trypan Blue exclusion assay. Cells were seeded into 10 cm dish at a density of 1 × 10^5 cells per dish. […] This was carried out in the presence and absence of FBS.

[3] = test system: CT-555 uptake in NIH3T3 cells; type: cell-based; details: NIH3T3, 20, 50 or 80 μM
[4] = target: T2, clathrin heavy chain binding to amphiphysin 1 (Homo sapiens, UniProt Q00610); assay: ELISA-based clathrin binding assay; details: up to 300 μM
T2 construct: recombinant GST-tagged clathrin heavy chain TD (amino acids 1-364); made in house; host or cells: bacteria
T2 sequence (Q00610 1-364): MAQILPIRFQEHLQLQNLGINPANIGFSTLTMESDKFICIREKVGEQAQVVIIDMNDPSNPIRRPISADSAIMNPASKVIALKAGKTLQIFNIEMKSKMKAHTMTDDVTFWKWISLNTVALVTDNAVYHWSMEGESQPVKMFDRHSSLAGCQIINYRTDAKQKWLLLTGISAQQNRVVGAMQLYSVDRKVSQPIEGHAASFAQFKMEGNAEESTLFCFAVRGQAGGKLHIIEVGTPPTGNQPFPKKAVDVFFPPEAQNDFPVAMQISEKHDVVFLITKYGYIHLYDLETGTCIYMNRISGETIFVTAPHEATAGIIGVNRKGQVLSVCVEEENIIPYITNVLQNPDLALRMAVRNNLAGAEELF
Method: The assay for the interaction of amphiphysin with either clathrin or AP2 was based on our previous report (11). Bacterially expressed recombinant purified His6-tagged amphiphysin 1 PRD+CLAP domains (amino acids 250-578) in screening buffer (20 mM HEPES, pH 7.4, 50 mM NaCl, 1 mM DTT, 1 mM PMSF) was added to a 384 well ELISA plate (high-binding PS Microplate, Greiner Bio-One) and bound to the plastic at room temperature for 1 hr. Non-specific binding was reduced by overnight incubation with 50 µL blocking buffer (20 mM HEPES, pH 7.4, 50 mM NaCl, 1 mM PMSF, 2 % BSA, 2.5 % skim milk) at 4 °C. Following extensive washes (with 20 mM HEPES, pH 7.4, 50 mM NaCl, 0.05 % Tween 20), chemical compounds diluted in DMSO (10 µL) were added and incubated together with bacterially expressed recombinant GST-tagged clathrin heavy chain TD (amino acids 1-364) or GST-AP-2 α-appendage (amino acids 702–938) for 1 hr at room temperature in screening buffer. This incubation was in the presence of test compounds diluted in 1% DMSO or 1% DMSO alone as a control. After 3 washes, horseradish peroxidase-coupled anti-GST antibodies were added in screening buffer and the plate incubated for 15 min at room temperature. Following additional washes, 50 µL TMB (3,3′,5,5′-tetramethylbenzidine) (Pierce Biotechnology) chromogenic substrate of horseradish peroxidase was added and the plate was incubated for 20 min before the reaction was terminated by adding 50 µL 1 N sulfuric acid to produce a yellow colour. The amount of bound protein was determined by spectrophotometric measurement in a plate reader in triplicates. Relative binding was calculated as a percentage of the DMSO control.

[5] = test system: rat brain synaptosomes; assay: Synaptic vesicle endocytosis: FM4-64 uptake in synaptosomes; details: read-out: SVE IC50
[6] = test system: Tfn-A594 uptake in U2OS cells; assay: Automated quantitative CME assay: Tfn-A594 uptake; type: cell-based; details: for recovery of normal non-neuronal CME after wash out: 10 μM for 30 min; for fold less potent CME inhibition in presence of serum protein: 5 or 10% FBS or 1% BSA versus none; for IC50: Homo sapiens
Method: To determine whether the Dyngo compounds are widespread cell‐permeable and endocytosis inhibitors, CME of fluorescent Tfn was compared in an automated quantitative endocytosis assay in U2OS cells. The assay consisted of over 1200 cells under serum‐free conditions; after preincubation with each analog for 30 min the uptake of fluorescent Tfn was measured. We refer to this endocytosis as non‐neuronal CME to distinguish it from CME of synaptic vesicles in presynaptic terminals of neurons, which is referred to as synaptic vesicle endocytosis (SVE). In these cells, Tfn uptake is presumed to be mediated by dynamin II, because this is the only isoform of dynamin that they express, as determined by western blot (Figure S6). […] There was no apparent correlation between in vitro and in‐cell activity, with potent dynamin‐active compounds like 1a and 14a having no effect on non‐neuronal CME (Table 1). This might be explained by low membrane permeability of these analogs, their cellular metabolism or rapid cellular efflux mechanisms.
Quantitative analysis of the inhibition of Alexa 594‐Tfn endocytosis in U2OS cells was performed on large numbers of serum‐starved cells as described 10. Synaptic vesicle recycling in cultured CGNs was monitored using FM1‐43 as described 57 (see Supporting Information). Dynamin‐independent endocytosis was measured using internalization of CT in NIH3T3 cells (using Tfn as a control) as described previously 58 with minor changes (see Supporting Information). The average number of cells for each data point was ˜1200. IC50 values were calculated using GraphPad Prism 5 and data were expressed as mean ± 95% confidence interval (CI) for three wells and ˜1200 cells.

[7] = then wash out up to 1 h / 60 min
[8] = Tfn-A594 uptake, U2OS, 30-min preincubation, serum-free, read-out: CME IC50
[9] = U2OS, 1 h incubation, 0.1% BSA, read-out: CME IC50, 0.1% BSA
[10] = U2OS, 1 h incubation, 1% BSA, read-out: CME IC50, 1% BSA
[11] = U2OS, 1 h incubation, 1% FBS, read-out: CME IC50, 1% FBS
[12] = U2OS, 1 h incubation, 5% FBS, read-out: CME IC50, 5% FBS
[13] = U2OS, 1 h incubation, 10% FBS, read-out: CME IC50, 10% FBS
[14] = U2OS, 1 h incubation, absence of FBS or BSA, read-out: CME IC50, 1 h

Row | Structure (SMILES) | bound to human serum albumin [1] [% bound] | cell membrane integrity / viability by trypan blue exclusion [2] | effect on dynamin-independent endocytosis of cholera toxin [3] | inhibition of clathrin heavy chain binding to amphiphysin 1 [4] | IC50 [5] [µM] | recovery of normal non-neuronal CME after wash out ([6]; then 10 min after removal) [%] | recovery of normal non-neuronal CME after wash out [6, 7] | fold less potent CME inhibition in presence of serum protein [6] | IC50 [6, 8] [µM] | IC50 [6, 9] [µM] | IC50 [6, 10] [µM] | IC50 [6, 11] [µM] | IC50 [6, 12] [µM] | IC50 [6, 13] [µM] | IC50 [6, 14] [µM] | preincubation time required for complete abolition of Tfn uptake ([6]; U2OS, 10 μM) [min] | shortest preincubation at which inhibition of CME was observed ([6]; U2OS, 10 μM) [min] | times more potent than dynasore in CME assay ([6]; same conditions, U2OS Tfn uptake)
1 | O=C(N/N=C/c1cc(O)c(O)cc1O)c1cc2ccccc2cc1O [4a, (E)-3-Hydroxy-N'-(2,4,5-trihydroxybenzylidene) -2-naphthohydrazide] | 99.4 | do not affect cell viability | no effect; also recorded: much less effect; also recorded: does not block | None of the compounds inhibited this interaction | 26.8 | 70 | over 80% | at least 20 fold | 5.7 ± 1 | 44 | 83 ± 12 | 23.7 ± 3.2 | 102 | 115 ± 7.5 | 6.3 ± 3.6 | 30 | 5 | –
2 | O=C(N/N=C/c1cccc(O)c1O)c1cc2ccccc2cc1O [6a, (E)-N'-(2,3-Dihydroxybenzylidene)-3-hydroxy-2-naphthohydrazide] | 99.7 | do not affect cell viability | no effect | None of the compounds inhibited this interaction | 70.1 | – | 70% | at least 20 fold | 5.8 ± 0.8 | 46 | 281 | 16.5 | 78 ± 7 | 108 ± 15 | 3.3 ± 0.6 | – | – | six times more potent
3 | O=C(N/N=C/c1ccc(O)c(O)c1)c1cc2ccccc2cc1O [Dynasore, (E)-N'-(3,4-Dihydroxybenzylidene)-3-hydroxy-2-naphthohydrazide] | 98.8 | do not affect cell viability | much less effect | None of the compounds inhibited this interaction | 184 | – | – | – | 34.7 ± 5.1 | 277 | 235 | 57.8 | 650 | 532 | 22.2 ± 6 | – | – | –
